Data taken from ChEMBL document CHEMBL1139812, “Kinesin spindle protein (KSP) inhibitors. Part 8: Design and synthesis of 1,4-diaryl-4,5-dihydropyrazoles as potent inhibitors of the mitotic kinesin KSP” (Bioorg Med Chem Lett, 2007).

What was measured:
[1] = tested on: A2780; test: Mitotic arrest in human A2780 cells xenografted nude mouse assessed as induction of phospho-histone H3 at 3.5 mg/kg; format: functional
[2] = Solubility at pH 4; format: physicochemical; settings: buffer
[3] = molecular target: T1, Kinesin-like protein KIF11 (Homo sapiens, UniProt P52732); test: Inhibition of KSP-induced nucleolin phosphorylation in cell-based mitotic arrest assay; format: functional
T1 sequence (P52732 whole entry): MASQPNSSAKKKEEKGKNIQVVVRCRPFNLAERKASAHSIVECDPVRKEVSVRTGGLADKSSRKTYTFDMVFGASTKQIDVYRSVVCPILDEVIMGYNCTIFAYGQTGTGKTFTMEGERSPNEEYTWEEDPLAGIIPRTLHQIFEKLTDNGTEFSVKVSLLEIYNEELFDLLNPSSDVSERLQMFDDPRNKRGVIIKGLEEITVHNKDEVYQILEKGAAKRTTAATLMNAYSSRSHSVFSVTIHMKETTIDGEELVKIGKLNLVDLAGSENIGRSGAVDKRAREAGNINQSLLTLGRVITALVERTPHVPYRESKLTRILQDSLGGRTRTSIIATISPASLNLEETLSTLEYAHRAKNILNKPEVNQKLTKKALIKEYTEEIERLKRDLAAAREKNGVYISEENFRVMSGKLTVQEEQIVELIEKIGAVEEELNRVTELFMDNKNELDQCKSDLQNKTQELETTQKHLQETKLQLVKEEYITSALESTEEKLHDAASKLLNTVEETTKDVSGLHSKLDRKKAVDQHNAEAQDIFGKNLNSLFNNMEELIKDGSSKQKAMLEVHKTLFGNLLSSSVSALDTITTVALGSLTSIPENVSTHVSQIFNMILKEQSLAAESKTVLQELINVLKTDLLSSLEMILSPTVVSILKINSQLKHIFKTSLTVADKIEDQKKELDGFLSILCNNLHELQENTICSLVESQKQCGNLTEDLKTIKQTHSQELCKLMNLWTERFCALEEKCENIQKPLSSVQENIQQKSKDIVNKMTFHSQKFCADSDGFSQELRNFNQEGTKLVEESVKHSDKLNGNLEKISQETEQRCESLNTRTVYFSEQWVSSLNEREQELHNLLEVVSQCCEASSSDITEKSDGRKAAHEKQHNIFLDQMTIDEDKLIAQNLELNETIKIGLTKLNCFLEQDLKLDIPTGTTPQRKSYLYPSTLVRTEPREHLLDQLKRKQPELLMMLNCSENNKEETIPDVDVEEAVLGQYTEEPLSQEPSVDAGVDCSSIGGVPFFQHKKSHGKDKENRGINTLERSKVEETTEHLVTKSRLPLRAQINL

[4] = tested on: KB 3-1; test: Ratio of IC50 for KB-V-1 cells to IC50 for KB-3-1 cells; format: functional, Homo sapiens
[5] = organism: Homo sapiens; test: Protein binding in human plasma; settings: read-out: PB (converted)
[6] = molecular target: T1, Kinesin-like protein KIF11; test: Inhibition of kinesin spindle protein by ATPase assay
[7] = Protein binding in mouse plasma; format: ADME, cell-free; settings: read-out: PB (converted)
[8] = molecular target: Voltage-gated inwardly rectifying potassium channel KCNH2 (Homo sapiens, UniProt Q12809); test: Inhibition of hERG expressed in HEK cells; format: toxicity, cell-based, HEK293
Sequence of Voltage-gated inwardly rectifying potassium channel KCNH2 (Q12809 whole entry): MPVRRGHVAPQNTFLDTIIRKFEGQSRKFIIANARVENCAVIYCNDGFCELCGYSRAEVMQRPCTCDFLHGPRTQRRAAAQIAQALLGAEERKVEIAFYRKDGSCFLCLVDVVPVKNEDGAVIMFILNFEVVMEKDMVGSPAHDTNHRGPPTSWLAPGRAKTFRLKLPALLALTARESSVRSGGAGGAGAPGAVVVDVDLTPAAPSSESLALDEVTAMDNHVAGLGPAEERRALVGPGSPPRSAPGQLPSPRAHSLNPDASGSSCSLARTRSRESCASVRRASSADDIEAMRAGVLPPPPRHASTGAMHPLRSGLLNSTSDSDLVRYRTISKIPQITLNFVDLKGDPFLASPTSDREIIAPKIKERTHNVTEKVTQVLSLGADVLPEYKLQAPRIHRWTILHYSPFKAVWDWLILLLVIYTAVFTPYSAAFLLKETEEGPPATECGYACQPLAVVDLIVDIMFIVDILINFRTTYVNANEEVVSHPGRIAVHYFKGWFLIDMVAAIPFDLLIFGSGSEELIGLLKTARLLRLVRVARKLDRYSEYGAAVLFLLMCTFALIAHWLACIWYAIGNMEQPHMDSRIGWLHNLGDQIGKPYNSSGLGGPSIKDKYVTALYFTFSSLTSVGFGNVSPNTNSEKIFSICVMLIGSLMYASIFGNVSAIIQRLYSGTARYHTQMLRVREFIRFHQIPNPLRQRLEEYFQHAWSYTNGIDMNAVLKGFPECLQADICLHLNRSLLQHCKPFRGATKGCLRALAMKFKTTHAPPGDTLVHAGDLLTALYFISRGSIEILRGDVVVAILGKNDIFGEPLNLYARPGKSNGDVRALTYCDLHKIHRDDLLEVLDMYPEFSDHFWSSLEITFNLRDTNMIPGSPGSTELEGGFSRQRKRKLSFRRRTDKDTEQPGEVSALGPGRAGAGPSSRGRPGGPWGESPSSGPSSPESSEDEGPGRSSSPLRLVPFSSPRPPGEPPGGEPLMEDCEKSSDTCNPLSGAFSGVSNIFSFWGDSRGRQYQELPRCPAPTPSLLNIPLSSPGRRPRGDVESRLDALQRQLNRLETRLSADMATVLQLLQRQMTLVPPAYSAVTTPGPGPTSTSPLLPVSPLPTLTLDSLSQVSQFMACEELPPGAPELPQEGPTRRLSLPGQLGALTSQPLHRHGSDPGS

Row | SMILES | EC50 [3] [nM] | IC50 [6] [nM] | further results
1 | CC(=O)C1=NN2c3cc(F)ccc3OC[C@H]2[C@@]1(CCCN1CCN(C(C)=O)CC1)c1ccccc1 | 5 |  | EC99 [1]: 100 nM; solubility [2]: > 4000 µg/mL
2 | CC(=O)C1=NN(c2cc(C)ccc2F)C[C@@]1(CCCN(C)C)c1ccccc1 | 3.2 | 0.2 | EC99 [1]: 67 nM; Ratio IC50 [4]: 1.6; solubility [2]: > 4000 µg/mL; fraction unbound [5]: 0.04; fraction unbound [7]: 0.07; IC50 [8]: 3040 nM
3 | CC(=O)C1=NN(c2cc(C(F)(F)F)ccc2F)CC1(CCCN1CCN(C(C)=O)CC1)c1ccccc1 (racemic) | 208 | 10.1 | 
4 | CC(=O)C1=NN(c2cc(Cl)ccc2F)CC1(CCCN1CCN(C(C)=O)CC1)c1ccccc1 (racemic) | 46 | 3.9 | 
5 | CC(=O)C1=NN(c2cc(F)ccc2F)CC1(CCCN(C)C)c1ccccc1 (racemic) | 9.4 | 2.1 | 
6 | CC(=O)C1=NN(c2cc(C)ccc2F)CC1(CCCN1CCN(C(C)=O)CC1)c1ccccc1 (racemic) | 27 | 2 | 
7 | CC(=O)C1=NN(c2cc(F)ccc2F)CC1(CCCN1CCN(C(C)=O)CC1)c1ccccc1 (racemic) | 78 | 3.8 | 
8 | CC(=O)C1=NN(c2ccccc2F)CC1(CCCN1CCN(C(C)=O)CC1)c1ccccc1 (racemic) | 368 | 21.8 | 
9 | CC(=O)C1=NN(c2cc(F)ccc2F)CC1(CCCN(C)Cc1cc(C)no1)c1ccccc1 (racemic) | 567 | 4 | 
10 | CC(=O)C1=NN(c2cc(Br)ccc2F)CC1(CCCN1CCN(C(C)=O)CC1)c1ccccc1 (racemic) | 38 | 4.7 | 

Second part, led by results:

Row | EC50 [3] [nM] | IC50 [6] [nM] | SMILES | further results
11 | 40 | 5.2 | CC(=O)C1=NN(c2cc(F)ccc2F)CC1(CCCN1CC(F)C1)c1ccccc1 (racemic) | 
12 | 15 | 3.8 | CC(=O)C1=NN(c2cc(F)ccc2F)CC1(CCCN1CCCC1)c1ccccc1 (racemic) | 
13 | 138 | 16.5 | CC(=O)C1=NN(c2cc(F)ccc2F)CC1(CCCN1CCS(=O)(=O)CC1)c1ccccc1 (racemic) | 
14 | 11 | 1.2 | CC(=O)C1=NN(c2cc(F)ccc2F)CC1(CCCN1CC2CC1CO2)c1ccccc1 (racemic) | 
15 | 53 | 4.2 | CC(=O)C1=NN(c2cc(F)ccc2F)CC1(CCCN1CCOCC1)c1ccccc1 (racemic) | 
